Target: β2AR (Homo sapiens, UniProt P07550)
Experiment: BRET analysis of β-arrestin2 binding to the β2AR in HEK 293 cells
Format: cell-based
Experimental: Schematic of screening methodologies for cAMP production and β-arrestin binding. Cells were treated with the unbiased beta-agonist isoproterenol (ISO)±test compounds. The primary high throughput screen utilized a luciferase-based cAMP biosensor, GLOSENSORTM (Promega), and an enzyme complementation-based assay, […]® (DiscoveRx). Independent secondary screening utilized a cAMP ELISA and BRET for β-arrestin recruitment. […] Secondary screen for cAMP production by ELISA. […] Cells were lysed and cAMP production was measured. […] Dose response curve for DFPQ as measured by BRET. […] Data for dose response curve was taken 12 min post ISO addition. n=3. […] Cells were lysed and cAMP production was measured by ELISA. […] Cells were read every 2 min post agonist addition. […] Cells were read every three minutes for 18 minutes on a PolarStar Optima plate reader (BMG) to establish peak signal. […] Luminescence was determined at room temperature (23-25° C.) on a PolarStar Optima plate reader (BMG). […] Relative assay bias was calculated from the ratio of normalized cAMP and arrestin recruitment responses. […] BRET was measured using a Tecan Infinite F500 microplate reader. […] Bound [35 S]GTPγS was collected by rapid filtration on GF/B filters, washed 4 times with 4 ml of cold GTPγS wash buffer and analyzed by liquid scintillation counting. […] Band intensity was measured by densitometry using ImageJ. […]

Sequence of β2AR (P07550 whole entry): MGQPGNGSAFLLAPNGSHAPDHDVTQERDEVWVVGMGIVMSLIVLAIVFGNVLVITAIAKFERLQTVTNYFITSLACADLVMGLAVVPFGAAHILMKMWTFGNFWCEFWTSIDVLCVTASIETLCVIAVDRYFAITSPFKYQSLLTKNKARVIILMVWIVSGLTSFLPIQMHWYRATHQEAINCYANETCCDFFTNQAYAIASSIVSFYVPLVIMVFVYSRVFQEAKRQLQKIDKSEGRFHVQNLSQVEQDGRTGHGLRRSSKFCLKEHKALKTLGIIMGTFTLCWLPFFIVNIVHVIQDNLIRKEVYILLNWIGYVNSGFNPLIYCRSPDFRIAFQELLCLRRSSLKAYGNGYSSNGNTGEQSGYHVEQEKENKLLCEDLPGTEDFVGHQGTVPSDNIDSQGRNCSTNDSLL

β-arrestin2 recruitment to the β2AR (10 μM DFPQ, over the measured time course, FIG. 2A): fully inhibited | mode of inhibition, global curve fitting and Schild analysis of ISO dose response curves (β-arrestin recruitment readout, FIG. 1D): non-competitive inhibition
Compound: Fc1ccc(Nc2nc(NC3CCCCC3)c3ccccc3n2)cc1F [DFPQ, N^4-cyclohexyl-N^2-(3,4-difluorophenyl)quinazoline-2,4-diamine]
